# Reference: PMC11022729 (Advanced Science, 2024)
# Read-outs that look alike come from different tables or passages of the source.
# Experiments:
# [1] = tested on: Slack−/− mice; experiment: Chloroquine-induced itch behavior, Slack knockout mice; assay type: in vivo, mouse
# Procedure: (§1) We then assessed the antipruritic efficacy of compound 6 in a model of histamine‐independent itching induced by the antimalarial drug chloroquine.
# (§2) Three to four days before the day of the experiment, the fur on the dorsolateral aspect of the neck was shaved under brief isoflurane anesthesia. On the testing day, the mice were habituated to a Plexiglas cylinder (30 cm in diameter) for 30 min. Compound 6 hydrochloride or vehicle were i.p. or p.o. administered, and 15 min later, the pruritogens chloroquine (200 µg), SLIGRL (100 µg), β‐alanine (100 µg), or histamine (800 µg), all dissolved in 0.9% saline (20 µL), were injected subcutaneously into the nape of the neck.^[ [29] ^] Number of scratching bouts directed toward the nape of the neck was assessed over 30 min by videotaping. In experiments with the Slack inhibitor, compound 31 (ref. [27]; 30 mg kg^−1 in 0.9% NaCl with 2% DMSO and 10% Kolliphor) was i.p. administered 5 min prior to compound 6.
# [2] = tested on: mice; experiment: Chloroquine-induced itch behavior, wildtype mice; assay type: in vivo, mouse
# Procedure: as §1, §2
# [3] = tested on: mice; experiment: Accelerating rotarod test; assay type: in vivo, mouse; settings: 15 min after dosing
# Procedure: As a prerequisite for interpreting itch behavior experiments, we first tested motor function after systemic dosing.
# Mice were placed on a rotarod treadmill (Ugo Basile, Italy) at increasing speed (4–40 rpm over 300 s) and trained for 4–5 consecutive days. Only mice that reached 300 s without falling off during the training sessions were included in the experiment. In the vertical pole test, the mice were placed head‐upward on top of a vertical pole with a rough surface (diameter, 1 cm; height, 40 cm), and the time until the animals reached the ground was recorded (cut‐off time 20 s). Only mice that reached the ground within 10 s in the baseline measurements were included in the experiment. […] The means of three trials at each time point were calculated for further analyses.
# [4] = Pharmacokinetics in mice (plasma and brain levels, LC-MS); assay type: in vivo; settings: mouse
# Procedure: To prepare for in vivo studies, we investigated the pharmacokinetic properties of compound 6. […] For comparison, we determined the plasma and brain loxapine levels. […] Collectively, the pharmacological and pharmacokinetic profiles of compound 6 make it an excellent molecule for in vivo pharmacodynamic studies.
# Pharmacokinetic experiments were performed by Bienta (Enamine Biology Services, Kiev, Ukraine). Study design, animal selection, handling, and treatment were performed in accordance with the Enamine PK study protocols and the Institutional Animal Care and Use Guidelines. Male C57BL/6J mice (11–16 weeks old) were used in this study. The animals were fasted for 4 h before dosing. […] Each timepoint treatment group included three animals, and a control group was employed, including one animal.
# Before collecting blood and brain tissue, the mice were anesthetized with 2,2,2‐tribromoethanol (150 mg kg^−1 i.p.). In studies with i.p. compound administration, the chest was opened, an incision was made in the right atrium, whole blood was collected into tubes containing K2EDTA, and the animals were perfused with saline (10 mL) prior to the excision of the brain tissue (left lobe). In studies with p.o. or i.v. delivery of compounds, blood was collected from the orbital sinus in microtainers containing K3EDTA, the animals were sacrificed by cervical dislocation, and the brain tissue (left lobe) was excised. After collection, the blood samples were centrifuged for 10 min at 3000 rpm, and the brain samples were weighed. All samples were immediately processed, flash‐frozen, and stored at −70 °C until subsequent analysis.
# The compound levels in the plasma and brain samples were determined using liquid chromatography–tandem mass spectrometry (LC‐MS/MS) by a staff member from Bienta. Pharmacokinetic data analysis was performed using non‐compartmental, bolus injection, or extravascular input analysis models with WinNonlin 5.2 (PharSight). Data below the lower limit of quantitation were presented as missing data to improve the validity of the half‐life calculations. For each treatment condition, the final concentration values obtained at each time point were analyzed for outliers using Grubbs' test, with the level of significance set at p < 0.05. The sum of the AUC0‐inf (area under the concentration‐time curve from zero to time infinity) was used to estimate the ratiobrain/plasma (concentration ratio of the compound in the brain and plasma).
# [5] = target: T1, human D3 receptor (Homo sapiens, UniProt P35462); experiment: [3H]-spiperone competition binding assay, D3; settings: for Ki: mean [CI 95%]
# T1 construct: expressed in transfected cells; host or cells: CHO
# T1 sequence (P35462 whole entry): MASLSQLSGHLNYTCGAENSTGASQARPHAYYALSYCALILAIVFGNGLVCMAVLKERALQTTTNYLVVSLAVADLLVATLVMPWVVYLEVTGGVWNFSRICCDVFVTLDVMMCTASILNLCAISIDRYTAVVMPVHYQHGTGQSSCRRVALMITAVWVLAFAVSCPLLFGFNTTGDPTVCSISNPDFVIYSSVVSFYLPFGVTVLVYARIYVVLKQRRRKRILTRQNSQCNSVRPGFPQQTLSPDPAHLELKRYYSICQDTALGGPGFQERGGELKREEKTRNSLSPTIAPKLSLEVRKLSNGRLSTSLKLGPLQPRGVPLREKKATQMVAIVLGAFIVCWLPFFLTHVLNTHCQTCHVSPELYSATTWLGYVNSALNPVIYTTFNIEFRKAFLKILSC
# Procedure: CHO cells stably expressing human dopamine D2short (D2R) and D3 receptor (D3R) were washed and harvested using PBS. […] The cell membrane homogenate was centrifuged (20 000 × g, 20 min, 4 °C), and the resulting cell pellet was resuspended in the binding buffer. Crude membrane extracts were kept at −80 °C until use. Before starting the experiments, cell membranes were thawed, homogenized by sonication (3 × 10 s), and stored in an ice‐cold binding buffer. […] Assays were performed at least in triplicate with appropriate concentrations ranging from 0.01 nM to 100 µM of the test compound. Non‐specific binding was determined using 10 µM haloperidol. By filtering through GF/B filters pretreated with 0.3% (m/v) polyethyleneimine, the bound radioligand was separated from free radioligand using a cell harvester. Radioactivity was measured using liquid scintillation counting. Data were evaluated using the GraphPad Prism 9 software (San Diego, CA, USA) with a nonlinear regression fit.
# [6] = tested on: voltage-gated (KV) potassium channel; experiment: SafetyScreen44 panel; assay type: binding, rat; settings: 10 µM
# Procedure: Measurements were performed in duplicate.
# channel, which were obtainedfrom ratspecimens).
# in brackets) specific for each target.
# [7] = male, C57BL/6J, ip, I.P. 10 mg/kg, brain
# [8] = male, C57BL/6J, ip, I.P. 10 mg/kg, plasma
# [9] = male, C57BL/6J, iv, I.V. 1 mg/kg, brain
# [10] = male, C57BL/6J, iv, I.V. 1 mg/kg, plasma
# [11] = male, C57BL/6J, po, P.O. 10 mg/kg, brain
# [12] = male, C57BL/6J, po, P.O. 10 mg/kg, plasma
# [13] = male, C57BL/6J, ip, I.P. 2.5 mg/kg, brain
# [14] = male, C57BL/6J, ip, I.P. 2.5 mg/kg, plasma
smiles,measurement,setting,value
O=C(O)COCCN1CCN(C2=Nc3ccccc3Oc3ccc(Cl)cc32)CC1 [Compound 6],chloroquine-induced scratching,"[1]; Slack−/− mice, i.p.",did not significantly alter
same,chloroquine-induced scratching behavior,[2]; 15 mg kg−1 p.o.,profound antipruritic effect
same,chloroquine-induced scratching behavior,"[2]; 3, 10, or 30 mg kg−1 i.p. 15 min prior to s.c. chloroquine, scratching bouts over 30 min",ameliorated scratching behavior in a dose‐dependent manner
same,"motor function, accelerating rotarod test",[3]; 3–30 mg i.p.,did not impair motor function
same,AUC(0-inf),[4]; [7],6780 ng·h/mL
same,Cmax,[4]; [7],5490 ng/mL
same,Tmax,[4]; [7],15 min
same,half-life,"[4]; male, C57BL/6J, ip, I.P. 10 mg/kg, brain, read-out: t1/2",39.7 min
same,AUC(0-inf),[4]; [8],5600 ng·h/mL
same,Cmax,[4]; [8],6280 ng/mL
same,Tmax,[4]; [8],15 min
same,half-life,"[4]; male, C57BL/6J, ip, I.P. 10 mg/kg, plasma, read-out: t1/2",35 min
same,AUC(0-inf),[4]; [9],520 ng·h/mL
same,Cmax,[4]; [9],493 ng/mL
same,Tmax,[4]; [9],15 min
same,half-life,"[4]; male, C57BL/6J, iv, I.V. 1 mg/kg, brain, read-out: t1/2",62.1 min
same,AUC(0-inf),[4]; [10],473 ng·h/mL
same,Cmax,[4]; [10],562 ng/mL
same,half-life,"[4]; male, C57BL/6J, iv, I.V. 1 mg/kg, plasma, read-out: t1/2",52.5 min
same,half-life,"[4]; male, C57BL/6J, plasma and brain, ip, 10 mg kg−1 i.p., first-order kinetics, read-out: half-life in the plasma and brain",~35 min
same,AUC(0-inf),[4]; [11],3750 ng·h/mL
same,Cmax,[4]; [11],2460 ng/mL
same,Tmax,[4]; [11],15 min
same,half-life,"[4]; male, C57BL/6J, po, P.O. 10 mg/kg, brain, read-out: t1/2",71.9 min
same,AUC(0-inf),[4]; [12],4070 ng·h/mL
same,Cmax,[4]; [12],3140 ng/mL
same,Tmax,[4]; [12],15 min
same,half-life,"[4]; male, C57BL/6J, po, P.O. 10 mg/kg, plasma, read-out: t1/2",67.4 min
same,blood–brain barrier crossing,[4]; 10 mg kg−1 i.p.,readily crossed the blood–brain barrier
same,fold lower affinity against D3 as compared to loxapine,[5],≈ 31 fold
same,Ki,[5],3.52 µM
same,binding,[6],did not measurably bind
"CN1CCN(C2=Nc3ccccc3Oc3ccc(Cl)cc32)CC1 [Loxapine, reference compound]",chloroquine-induced scratching behavior,"[1]; Slack knockout mice, systemic low dose, preliminary experiments",did not affect
same,chloroquine-induced scratching behavior,"[2]; wildtype mice, systemic low dose, preliminary experiments",considerably alleviated
same,"motor function, accelerating rotarod test",[3]; dose of ≥ 0.39 mg kg−1 i.p.,markedly reduced the ability of the mice to perform
same,Kp,"[4]; male, C57BL/6J, brain and plasma, ip, 2.5 mg kg−1 i.p., from AUC0-inf, read-out: ratio brain/plasma",5.12
same,AUC(0-inf),[4]; [13],913 ng·h/mL
same,Cmax,[4]; [13],493 ng/mL
same,Tmax,[4]; [13],15 min
same,half-life,"[4]; male, C57BL/6J, ip, I.P. 2.5 mg/kg, brain, read-out: t1/2",82.2 min
same,AUC(0-inf),[4]; [14],178 ng·h/mL
same,Cmax,[4]; [14],143 ng/mL
same,Tmax,[4]; [14],15 min
same,half-life,"[4]; male, C57BL/6J, ip, I.P. 2.5 mg/kg, plasma, read-out: t1/2",61.9 min
same,Ki,[5],0.112 µM
same,binding,[6],did not measurably bind
